The values below come from patent US8486996B2, “Aroylfuranes and aroylthiophenes” (Basilea Pharmaceutica AG, priority 2006, dated 2013).

Molecules are shown by their SMILES. Read-outs that look alike come from different tables or passages of the source.

Data set [1] in a line: Hoechst 33342 nuclear staining (48 h read-out). Format: cell-based. An outline of the steps: (§1)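 Adherent cells pre-spread 24 h before dosing, suspension cells dosed at seeding; compounds at 0.001 μM-10 μM final, 48 h at culture conditions. Hoechst 33342 (2-5 μg/ml) added for 30 min, then fluorescence microscopy scoring of apoptotic nuclear fraction and apoptosis-specific morphology, reported as scores A-D.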

The subject of data set [2] is tumor cells. The data set can be described thus: Hoechst 33342 nuclear staining (48 h read-out). Format: cell-based. An outline of the steps: as §1
A short description of data set [3]: Mitochondrial membrane potential, JC-1 (read-out 48 h). The class given is cell-based. The settings on record: PBL, JC-1, 48 h. An outline of the steps:
(§2)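 Tumor cells were treated with test compounds (adherent cells after 24 h of attachment, suspension cells immediately), medium holding up to 5% DMSO. After 48 h, JC-1 (2-5 μg/ml in added medium) was applied for 30 min. Fluorescence microscopy (FITC/TRITC filters) scored the fraction of cells with dissipated mitochondrial membrane potential as categories A-D.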

The subject of data set [4] is tumor cells. Described as above. The class given is cell-based. The settings on record: JC-1, 48 h. An outline of the steps:
as §2

The nature of data set [5]: MTS proliferation assay (72 h read-out). The class given is cell-based. Conditions: MRC5 cells. An outline of the steps: (§3)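 Viability was read by MTS absorbance at 492 nm after 3 h with reagent. Before that, cells plated a day earlier at 1.5×10^3–10^4 per well had been incubated with test compound at final concentrations of 0.001–10 μM for 72 h; activity is given as category scores A–D.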

The subject of data set [6] is tumor cells. Kind of data set: MTS proliferation assay (72 h read-out). Format: cell-based. An outline of the steps:
as §3
For orientation: Tetrazolium dyes change colour on reduction, which living cells bring about.

For data set [7], the system named is H460. The data set can be described thus: Colony Forming Units (read-out 6 days), H460. Format: cell-based, human. Conditions: colonies containing more than 30 cells, read-out: Colony Forming Units, score based on IC50, H460. As to the method:
(§4) Appropriate numbers of cells (100-150 cells, dependent on the cell type) are being seeded out in 1 ml complete medium into 6-well plates and allowed to attach for 48 h. The compounds are added after 48 h in 500 μl solution. The concentrations are in the range of 0.001 μM-3 μM. Control plates receive the same volume of medium containing the appropriate amount of DMSO. The plates are incubated for 5-7 days at cell culture conditions and subsequently scored for growth of colonies (containing more than 30 cells) by using a microscope.

For data set [8], the system named is HeLa. The data set can be described thus: Colony Forming Units (read-out 6 days), HeLa. The settings on record: colonies containing more than 30 cells, read-out: Colony Forming Units, score based on IC50, HeLa. Format: cell-based, human. Here is the method: as §4
[9] abbreviates: MRC5 cells, read-out: Hoechst 33342 nuclear staining EC50, MRC5.
Where [10] appears, read: PBL, read-out: Hoechst 33342 nuclear staining EC50, PBL.
Where [11] appears, read: HeLa cells, read-out: Hoechst 33342 nuclear staining EC50, HeLa.
Where [12] appears, read: Jily cells, read-out: Hoechst 33342 nuclear staining EC50, Jily.
The mark [13] stands for this setting: Jurkat cells, read-out: Hoechst 33342 nuclear staining EC50, Jurkat.
Setting [14] is: HeLa cells, read-out: Mitochondrial membrane potential (read-out 48 h) HeLa.
Where [15] appears, read: Jily cells, read-out: Mitochondrial membrane potential (read-out 48 h) Jily.
[16] abbreviates: Jurkat cells, read-out: Mitochondrial membrane potential (read-out 48 h) Jurkat.
Where [17] appears, read: MCF7 cells, read-out: Mitochondrial membrane potential (read-out 48 h) MCF7.
Setting [18] is: HT1080 cells, read-out: MTS proliferation assay IC50, HT1080.
Where [19] appears, read: HeLa cells, read-out: MTS proliferation assay IC50, HeLa.
Where [20] appears, read: Jily cells, read-out: MTS proliferation assay IC50, Jily.
The mark [21] stands for this setting: Jurkat cells, read-out: MTS proliferation assay IC50, Jurkat.
Setting [22] is: Homo sapiens, MRC5 cells, read-out: Hoechst 33342 nuclear staining EC50, MRC5.
Where [23] appears, read: Homo sapiens, HeLa cells, read-out: Hoechst 33342 nuclear staining EC50, HeLa.
The mark [24] stands for this setting: Homo sapiens, Jurkat cells, read-out: Hoechst 33342 nuclear staining EC50, Jurkat.
The mark [25] stands for this setting: Homo sapiens, HeLa cells, read-out: Mitochondrial membrane potential (read-out 48 h) HeLa.
Setting [26] is: Homo sapiens, Jurkat cells, read-out: Mitochondrial membrane potential (read-out 48 h) Jurkat.
The mark [27] stands for this setting: Homo sapiens, MCF7 cells, read-out: Mitochondrial membrane potential (read-out 48 h) MCF7.

As to `CCOc1ncccc1C(=O)c1oc2ccc(Cl)cc2c1N` [Example 78], the EC50 was more than 1000 nM in [1] (setting [9]); more than 1000 nM in data set [1] (setting [10]); 10 to 100 nM in data set [2] (setting [11]); 10 to 100 nM in data set [2] (setting [12]); less than 10 nM in [2] (setting [13]); more than 1000 nM in data set [3]. Further, the EC50 in [4] (setting [14]) is 10 to 100 nM; in data set [4] (setting [15]), 10 to 100 nM; in data set [4] (setting [16]), less than 10 nM; in [4] (setting [17]), 100 to 1000 nM. Moreover, the IC50 was less than 10 nM in data set [5]; less than 10 nM in [6] (setting [18]); 10 to 100 nM in [6] (setting [19]); less than 10 nM in data set [6] (setting [20]); less than 10 nM in data set [6] (setting [21]); 10 to 100 nM in data set [7]. Further, in data set [8], the IC50 fell in the range of 10 to 100 nM.
`CCN(C)c1ncccc1C(=O)c1oc2ccc(Cl)cc2c1N` [Example 80]: the EC50 was more than 1000 nM in data set [1] (setting [9]); more than 1000 nM in [1] (setting [10]); 100 to 1000 nM in data set [2] (setting [11]); 100 to 1000 nM in [2] (setting [12]); 100 to 1000 nM in [2] (setting [13]); more than 1000 nM in data set [3]. Besides, the EC50 is 100 to 1000 nM in data set [4] (setting [14]), 100 to 1000 nM in data set [4] (setting [15]), 10 to 100 nM in data set [4] (setting [16]) and more than 1000 nM in [4] (setting [17]). In addition, the IC50 in data set [5] was in the range of 100 to 1000 nM; in [6] (setting [18]) it was 100 to 1000 nM; in data set [6] (setting [19]), 100 to 1000 nM; in data set [6] (setting [20]), 10 to 100 nM; in data set [6] (setting [21]), 10 to 100 nM; in data set [7], 100 to 1000 nM. Moreover, in [8], the IC50 lay in the range of 100 to 1000 nM.
Take `Nc1c(C(=O)c2cccnc2N2CCCCC2)oc2ccc(Cl)cc12` [Example 82]: the EC50 in data set [1] (setting [9]) is 10 to 100 nM; in [1] (setting [10]), more than 1000 nM; in [2] (setting [11]) it was 10 to 100 nM; in data set [2] (setting [12]) it was 10 to 100 nM; in data set [2] (setting [13]) it was less than 10 nM; in [3] it was more than 1000 nM. For the same molecule, the EC50 in data set [4] (setting [14]) was 10 to 100 nM; in data set [4] (setting [15]) it was less than 10 nM; in data set [4] (setting [16]), less than 10 nM; in data set [4] (setting [17]) it was 10 to 100 nM. The IC50 in data set [5] is less than 10 nM; in data set [6] (setting [18]), less than 10 nM; in data set [6] (setting [19]), less than 10 nM; in [6] (setting [20]) it was less than 10 nM; in data set [6] (setting [21]) it was less than 10 nM; in [7], 10 to 100 nM. Moreover, in data set [8], the IC50 lay within 10 to 100 nM.
As to `COc1ccc2oc(C(=O)c3cc(F)ccc3N3CC=CCC3)cc2c1` [Example 98], the EC50 in data set [1] (setting [9]) is 10 to 100 nM; in data set [1] (setting [10]), more than 1000 nM; in data set [2] (setting [11]), 10 to 100 nM; in [2] (setting [12]), 10 to 100 nM; in [2] (setting [13]), less than 10 nM; in data set [3] it was more than 1000 nM. The EC50 in [4] (setting [14]), in data set [4] (setting [15]), in data set [4] (setting [16]) and in [4] (setting [17]) was less than 10 nM each time. In addition, the IC50 in [5] was less than 10 nM; in data set [6] (setting [18]), 10 to 100 nM; in [6] (setting [19]), 10 to 100 nM; in data set [6] (setting [20]) it was 10 to 100 nM; in [6] (setting [21]) it was less than 10 nM; in data set [7] it was 10 to 100 nM. For the same molecule, the IC50 in [8] is 10 to 100 nM.
Molecule `CCOc1ccccc1C(=O)COc1nc(C)ccc1C#N` [Example 145] displayed a melting point of 156 to 158 °C. Besides, the EC50 in [1] (setting [22]) is more than 1000 nM. The EC50 in [1] (setting [10]) was more than 1000 nM. The EC50 in data set [2] (setting [23]) is more than 1000 nM. Moreover, the EC50 in data set [2] (setting [24]) is 100 to 1000 nM. Also, the EC50 in [2] (setting [12]) lay in the range of 100 to 1000 nM. Also, the EC50 in data set [3] was more than 1000 nM. The EC50 in data set [4] (setting [25]) is more than 1000 nM. The EC50 in data set [4] (setting [26]) fell in the range of 100 to 1000 nM. The EC50 in data set [4] (setting [27]) lay in the range of 100 to 1000 nM.
In turn, `CCOc1ccc(Cl)cc1C(=O)COc1nc(C)ccc1C#N` [Example 146] returned a melting point of 138 to 140 °C. Moreover, in [1] (setting [22]), the EC50 was in the range of 100 to 1000 nM. Moreover, in data set [1] (setting [10]), the EC50 is more than 1000 nM. Moreover, the EC50 in data set [2] (setting [23]) is 100 to 1000 nM. The EC50 in data set [2] (setting [24]) fell in the range of 10 to 100 nM. Moreover, the EC50 in data set [2] (setting [12]) is 100 to 1000 nM. Moreover, the EC50 in data set [3] was more than 1000 nM. The EC50 in [4] (setting [25]) lay within 100 to 1000 nM. Moreover, the EC50 in [4] (setting [26]) lay in the range of 10 to 100 nM. Besides, the EC50 in [4] (setting [27]) was in the range of 100 to 1000 nM.

As usually defined, the melting point is the temperature, or range, at which the solid turns liquid.
